The results in this text go back to publication PMC5877874, “Prenylated phloroglucinols from Hypericum scruglii, an endemic species of Sardinia (Italy), as new dual HIV-1 inhibitors effective on HIV-1 replication” (PLoS ONE, 2018).

The subject of one data set is HIV-1 virus NL(AD8). As to the kind of experiment: Antiviral activity on HIV-1 (AD8) replication in TZM-bl cells (CPRG assay). The following applies: for EC50: read-out: EC50, HIV-1 (AD8) replication. The class given is cell-based. The procedure:
(§1) The human TZM-bl indicator cell line was obtained from the American Type Culture Collection (Manassas, VA) and maintained at 37°C and 5% CO2 in Dulbecco's modified Eagle's medium (DMEM) containing 10% fetal bovine serum, 50 μg/mLpenicillin, and 50 μg/mL streptomycin. The HIV-1 virus NL(AD8) was titrated as follows: serial 5-fold dilutions of the virus were made in quadruplicate wells in 96-well culture plates, in a total volume of 100 μL of growth medium, for a total of 8 dilution steps. Freshly trypsinized cells (20,000 cells in 100 μL of growth medium containing 75 μg/mL DEAE-dextran) were added to each well, and the plates were incubated at 37°C in a humidified 5% CO2-95% air environment. After 48 h of incubation, the medium was removed and viral infection was quantified using a β-galactosidase (CPRG) assay (Roche). Twenty thousand TZM-bl cells/well were seeded in 96-well plates in complete DMEM supplemented with 30 μg/mL DEAE-dextran (Sigma-Aldrich). Three hundred times the 50% tissue culture infective dose (TCID50)/mL of HIV AD8 strain and seven serial dilutions (range, 40.000 nM to 625 nM) of each compound were added to the cells, as previously described. Vehicle (0.1% dimethyl sulfoxide [DMSO])-treated cells served as a negative control. […] The TZM-bl indicator cell line has an integrated copy of the β-galactosidase gene under control of the HIV-1 promoter. Β-Galactosidase expression, measured by use of a chlorophenol red/β-D-galactopyranoside (CPRG) assay (Roche) in cell lysates 48 h post-infection was used as a marker of HIV infection. The inhibitory curves were fitted by nonlinear regression, allowing for the calculation of the 50% effective concentration (EC50) using the Prism software. To evaluate the cell toxicity of the compounds, the metabolic XTT [2,3-bis-(2-methoxy-4-nitro-5-sulfophenyl)-2H-tetrazolium-5-carboxanilide] test (Sigma-Aldrich) was performed according to the manufacturer's instructions.

In data set [1] the target is T1, HIV-1 IN in the presence of LEDGF/p75 (Human immunodeficiency virus type 1 group M subtype B, UniProt P04585).
T1 construct: Full-length IN and LEDGF proteins were expressed in E. coli BL21 (DE3); made in house; host or cells: E. coli BL21 (DE3)
As to the kind of experiment: HTRF LEDGF dependent integrase assay. The class given is biochemical. The following applies: for IC50: IN catalytic activities in the presence of LEDGF/p75. The procedure:
(§2) His-tagged p66/p51 HIV-1 RT was expressed in Escherichia coli strain M15 as previously described. Full-length IN and LEDGF proteins were expressed in E. coli BL21 (DE3).
The IN LEDGF/p75 dependent assay allowed to measure the inhibition of the 3’processing and strand transfer IN reactions in the presence of recombinant LEDGF/p75 protein, as previously described. Briefly, 50 nM IN was preincubated with increasing concentration of compounds for 1 hour at room temperature in reaction buffer containing 20 mM HEPES pH 7.5, 1 mM DTT, 1% Glycerol, 20 mM MgCl2, 0.05% Brij-35 and 0.1 mg/ml BSA. To this mixture, 9 nM DNA donor substrate (5’-[…]-Biotin-3’ annealed with 5’-[…]-Biotin3’) and 50 nM DNA acceptor substrate (5’-Cy5-[…]-3’ annealed with 5’-Cy5- […]-3’) and 50 nM LEDGF/p75 protein were added and incubated at 37°C for 90 minutes.
On the technique in general: In TR-FRET formats the signal depends on donor and acceptor labels being close together.

For data set [2], the target named is T2, HIV-1 RT-associated RDDP activity (Human immunodeficiency virus type 1 group M subtype B, UniProt P04585).
T2 construct: His-tagged p66/p51 HIV-1 RT; His tag; made in house; host or cells: Escherichia coli strain M15
As to the kind of experiment: RDDP assay (Enz-Check Reverse Transcriptase Assay Kit). The format is biochemical. The following applies: for IC50: concentration required to inhibit the HIV-1 RDDP activity by 50%. As to the method: as §2
The HIV-1 RT-associated RDDP activity was measured using the Enz-Check Reverse Transcriptase Assay Kit (Life technologies, Carls- bad, California, USA), as previously described. The Yonetani-Theorell analysis was performed as previously reported.

Data set [3] deals with T3, HIV-1 RT-associated RNase H activity (Human immunodeficiency virus type 1 group M subtype B, UniProt P04585).
T3 construct: His-tagged p66/p51 HIV-1 RT; His tag; made in house; host or cells: Escherichia coli strain M15
As to the kind of experiment: RNase H polymerase-independent cleavage assay. The class given is biochemical. As to conditions: for Inhibition of both HIV-1 RT-associated RNase H and RDDP functions (in words): maximum concentration tested 100 μM; for IC50: concentration required to inhibit the HIV-1 RNase H activity by 50%. The procedure: as §2
The HIV-1 RT-associated RNase H activity was measured in 100 μL reaction volume containing 50 mM Tris–HCl, pH 7.8; 6 mM MgCl2; 1 mM dithiothreitol (DTT); 80 mM KCl; hybrid RNA/DNA (5′-[…]-3′-fluorescein, 5′-[…]-3′-Dabcyl); and 3.8 nM RT. The reaction mixture was incubated for 1 h at 37°C, the reaction was stopped by the addition of EDTA, and products were measured with a Victor 3 (Perkin) at 490/528 nm.

For data set [4], the system named is env-pseudotyped HIV-1 virus (REJO4541 clone 67). The class given is cell-based. The following applies: TZM-bl cells, 40-fold EC50 concentration.
Procedure: In TOA experiment it is of fundamental importance that only one replication cycle has been completed to avoid confounding effects derived from unwashed viruses after 1 hour of infection. […] 40000 TZM-bl cells/well in a 96-multiwell plate were infected with 1500 X the TCID50 per mL of the env-pseudotyped HIV-1 virus in complete medium supplemented with DEAE-dextran (Sigma–Aldrich, 30 mg/mL). Virus was incubated with cells for 1 h at 4°C, and unbound virus was subsequently removed by extensive and repeated washing with phosphate-buffered saline (PBS) to synchronize the replication. […] After 2 days, viral infection was quantified using a CPRG assay (Roche) and was then normalized to untreated control cells.
Data set [5] can be described thus: Cell toxicity, metabolic XTT test. The format is cell-based, human. As to conditions: human; TZM-bl cells, XTT; read-out: CC50, TZM-bl cell viability. As to the method:
as §1

The next data set relates to TZM-bl cells. As to the kind of experiment: Cell toxicity, metabolic XTT test. The format is cell-based, human. The procedure:
as §1
(In general: Tetrazolium dyes change colour on reduction, which living cells bring about.)

Setting [6] is: TZM-bl cells, 48 h post-infection.
Where [7] appears, read: Human immunodeficiency virus 1, TZM-bl, 48 h.

Like-named read-outs stand apart in the source and are kept apart here.

By EC50 is commonly meant the concentration needed to bring the measured effect to its halfway point. For Maraviroc [reference compound], the concentration for a half-maximal effect (EC50) with HIV-1 virus NL(AD8) (setting [6]) stood at 0.07 µM.

As usually defined, the IC50 is the point on the concentration scale where inhibition reaches its midpoint. For the molecule `O=C(O)c1ccc(O)c(O)c1` [Compound 5, 3,4-dihydroxybenzoic acid], the remaining activity at 100 µM was found to be 97% in data set [1] (100 μM compound, in the presence of LEDGF, read-out: Percentage of control IN activity in the presence of compound); 85% in data set [2] (100 μM compound, read-out: Percentage of control RDDP activity in the presence of compound); 100% in data set [3] (100 μM compound, read-out: Percentage of control RNase H activity in the presence of compound). Also, the IC50 in data set [1], in data set [2] and in data set [3] was above 100 µM throughout. The “HIV-1 IN inhibition (in words)” value in data set [1] (in presence of LEDGF/p75) is on record as “not active”. For the same molecule, in the data set on HIV-1 virus NL(AD8) (setting [7]), the EC50 was above 40 µM. Besides, the “Inhibition of both HIV-1 RT-associated RNase H and RDDP functions (in words)” value in data set [3] was “inactive”.

Regarding `Oc1cc(O)c(CC(O)C(O)c2ccc(O)c(O)c2)c(O)c1` [Compound 4, 1,3,5-benzentriol 2-[(2S,3R)-3-(3,4-dihydroxylphenyl)-2,3-dihydroxylpropyl]], the concentration for half-maximal inhibition (IC50) in data set [1] was 6.4 ± 0.7 µM; in data set [2], 92 ± 10 µM; in data set [3], 93 ± 7 µM. In addition, the EC50 in the data set on HIV-1 virus NL(AD8) (setting [7]) is above 40 µM. Further, the “Inhibition of both HIV-1 RT-associated RNase H and RDDP functions (in words)” value in data set [3] is recorded as “weak inhibition”.

Regarding `CCOC(=O)C(=O)CC(=O)/C=C/c1cccn1Cc1ccccc1Cl` [RDS 1759, reference compound], it took 7.3 ± 0.1 µM to reach half-maximal inhibition in data set [3] (IC50).

In general, CC50 refers to the concentration at which the toxic effect on the cells reaches its halfway point. Take `C=C(C)C(O)CC/C(C)=C/Cc1c(O)cc(O)c(C(=O)C(C)CC)c1O` (stereo not drawn) [Compound 3, 3-(13-hydroxygeranyl)-1-(2'-methylbutanoyl)phloroglucinol]: the half-inhibitory concentration (IC50) in data set [1] amounted to 13 ± 1 µM; in data set [2], 19.7 ± 3.5 µM; in data set [3] it was 9.1 ± 0.5 µM. For the same molecule, the concentration giving a half-maximal response (EC50) in the data set on HIV-1 virus NL(AD8) (setting [7]) stood at 3.5 µM. In addition, the “Time of addition after which antiviral activity is lost” value in data set [4] is recorded as 4–5 hour post-infection. In addition, the CC50 in data set [5] was above 50 µM.

In the case of `C[C@@H]1O[C@@H](Oc2c(-c3ccc(O)c(O)c3)oc3cc(O)cc(O)c3c2=O)[C@H](O)[C@H](O)[C@H]1O` [Compound 6, quercitrin], the half-maximal inhibitory concentration (IC50) worked out at 1.6 ± 0.16 µM in data set [1], 9.7 ± 1.4 µM in data set [2] and 6.3 ± 1 µM in data set [3]. For the same molecule, the “Fold more active on HIV-1 IN activity with respect to HIV-1 RNase H function” value in data set [1] (IN versus RNase H IC50) was 4 fold. The EC50 in the data set on HIV-1 virus NL(AD8) (setting [7]) is above 40 µM. In the data set on HIV-1 virus NL(AD8) (highest tested concentration, TZM-bl cells), the “Effect on HIV-1 replication (in words)” value is “did not exert any effect”. Also, the “Inhibition of both HIV-1 RT-associated RNase H and RDDP functions (in words)” value in data set [3] was “active in the low micromolar range”.

Take “3-geranyl-1-(2'-methylpropanoyl)phloroglucinol [Compound 2]”: the half-maximal inhibitory concentration (IC50) in data set [1] came out at 7.4 ± 0.4 µM; in data set [2], 12.3 ± 2.5 µM; in data set [3] it was 4.1 ± 0.1 µM. In addition, the half-maximal effective concentration (EC50) in the data set with HIV-1 virus NL(AD8) (setting [6]) is 8 µM. For the same molecule, in the data set with TZM-bl cells, the 50% cytotoxic concentration (CC50) was above 50 µM.

“3-geranyl-1-(2'-methylbutanoyl)phloroglucinol [Compound 1]”: the IC50 was found to be 7.3 ± 0.3 µM in data set [1], 25.5 ± 8.8 µM in data set [2] and 4.3 ± 0.4 µM in data set [3]. Moreover, in the data set with HIV-1 virus NL(AD8) (setting [6]), the EC50 turned out to be 3.5 µM. Moreover, in the data set with TZM-bl cells, the CC50 was above 50 µM.
